The record followed here is patent US12404232B2, “Compounds and compositions for intracellular delivery of therapeutic agents” (ModernaTX, Inc., priority 2015, dated 2025).

The subject of one series is mice. As to the kind of experiment: Luc expression (total flux) after intramuscular administration. Particulars: 6 hours after intramuscular administration, Luc mRNA and H10 mRNA. The series is classed as in vivo.
For series [1], the system named is rats. As to the kind of experiment: hEPO expression in rats after intravenous administration. The format is in vivo, rat. Particulars: for hEPO expression: rat. As to the method:
(§1) The expression of hEPO and cytokine induction in rats intravenously administered a nanoparticle composition at a dose of 2.0 mpk was measured at 6 h.
(§2) The expression of hEPO in rats intravenously administered a nanoparticle composition at a dose of 0.2 mpk or 2.0 mpk was measured at 6 hours. Table 16 summarize the ratio of hEPO expression levels using various nanoparticle compositions as compared to the hEPO expression level using MC3 formulation and the lipid levels in the liver measured 48 hours after administration, as described above. Tables 17 and 18 summarize the lipid levels in the liver and spleen measured 48 hours after administration of Compounds 28, 33, 53, and 54. Liver and spleen levels represent the average values calculated for 3 rats in each group. As is shown in Tables 17 and 18, less than 10% of Compounds 28, 33, 53, and 54 remained in the liver after 48 hours, while greater than 60% of MC3 remained.
(§3) Table 19 summarizes the hEPO expression, IP-10 induction, liver and spleen levels, and alanine aminotransferase (ALT) and aspartate aminotransferase (AST) measured upon intravenous administration of formulations including Compounds 48, 49, and 50 to rat at 0.2 and 2 mpk and hEPO mRNA. hEPO concentrations were measured 6 hours after administration, while cytokine induction and liver and spleen levels were measured 48 hours after administration. hEPO and IP-10 concentrations are presented in pg/ml, while liver levels are provided in ng/g. ALT and AST levels are presented in international units.
(§4) The expression of hEPO induced by intravenous administration to rats of nanoparticle compositions at various doses was measured at 2, 4, 6, 8, 24, and 48 hour time points. FIGS. 3-6 respectively summarize the hEPO expression measured upon intravenous administration of formulations including Compounds 26, 18, 25, and MC3 to rat at various doses. The lipid levels of Compound 26 in the liver after 48 hours were about 19%.
The expression of hEPO and lipid levels in the liver and spleen in rats intravenously administered a nanoparticle composition at a dose of 0.2 mpk was measured at various timepoints. Compounds 18 and 25 were selected for comparison with MC3. Lipids were formulated according to the standard MC3 formulation described above. Rats were administered intravenously a single 0.2 mpk dose and expression monitored at 0.25, 0.5, 1, 2, 4, 8, 24, and 48 hours after administration. […]

The test system of series [2] is rats. The series is described as follows: Cytokine induction (IP-10) in rats after intravenous administration. The format is in vivo. Particulars: rat, 6 hours after administration of hEPO nanoparticle compositions, 2.0 mpk. As to the method: as §1, §3
Series [3] relates to rats. The series is described as follows: Residual lipid levels in liver and spleen of rats (UPLC-MS quantification). The series is classed as in vivo, rat. The note with it: for % Lipid Remaining in liver, 48 h* 2 mpk: assuming 300 g rat and 15 g liver; for Lipid level in liver / Lipid level in spleen: rat, i.v., 0.2 mpk. The method, then: At 48 h liver tissue was harvested for lipid quantification. To pre-weighed tissues, Milli-Q water was added (900 μL water per 100 mg tissue). Tissues were homogenized using an Omni probe homogenizer until uniform. 50 μL of samples and matrix calibration standards were aliquoted into a 96-well plate. 50 μL of blank matrix for matrix blanks and control blanks were aliquoted. 400 μL IS spiking solution were manually added to all samples except matrix blanks. 400 μL of 50:50 ACN:IPA were manually added to matrix blanks. The plate was covered and the samples vortexed and centrifuged for 5 minutes at >3000 rpm. 200 μL of the samples were transferred into a clean 96-well plate for analysis. Samples were analyzed on a Waters Acquity UPLC using a Higgins Analytical Clipeus C8 column ([…], 30×2.1 mm) and a gradient of either 70-95% or 60-95% (Mobile Phase A: 5 mM ammonium formate in 50:50:1 H2O:MeOH:formic acid; Mobile Phase B: 5 mM ammonium formate in 100:1 MeOH:formic acid) over 1.3 min at 1.2 mL/min (column temperature 55° C.). Detection was based on electrospray ionization (ESI) in positive mode using a Sciex API5500 Mass Spectrometer.
as §2, §3, §4
The expression of hEPO and lipid levels in the liver and spleen in rats intravenously administered a nanoparticle composition at a dose of 0.2 mpk was measured at various timepoints. Compounds 18 and 25 were selected for comparison with MC3. Lipids were formulated according to the standard MC3 formulation described above. Rats were administered intravenously a single 0.2 mpk dose and expression monitored at 0.25, 0.5, 1, 2, 4, 8, 24, and 48 hours after administration.

`CCCCCC=CCC=CCCCCCCCCC(CCCCCCCCC=CCC=CCCCCC)OC(=O)CCCN(C)C` (stereo not shown) [MC3, heptatriaconta-6,9,28,31-tetraen-19-yl 4-(dimethylamino)butanoate, reference compound]: the “Total flux (p/s) 0.001 mpk Dose” value in the series on mice came out at 2.76E+06 p/s. The “Total flux (p/s) 0.01 mpk Dose” value with mice was 3.68E+07 p/s. For the same compound, the “hEPO expression” value turned out to be 1.33e+07 pg/mL with rats [1] (6 h, 2 mpk, intravenous); 0 pg/mL with rats [1] (i.v., 0.2 mpk, 0.25 h); 42457 pg/mL in the series on rats [1] (i.v., 0.2 mpk, 0.5 h); 93720 pg/mL in the series with rats [1] (i.v., 0.2 mpk, 1 h); 524093 pg/mL with rats [1] (i.v., 0.2 mpk, 2 h); 601307 pg/mL in the series on rats [1] (i.v., 0.2 mpk, 4 h). Moreover, the hEPO expression in the series on rats [1] (i.v., 0.2 mpk, 8 h) is reported as 1536833 pg/mL; in the series with rats [1] (i.v., 0.2 mpk, 24 h), 703619 pg/mL; in the series on rats [1] (i.v., 0.2 mpk, 48 h), 64687 pg/mL. Also, the “Lipid/MC3 hEPO conc. ratio 0.2 mpk” value with rats [1] (rats, intravenous, 0.2 mpk, 6 hours) was 1. Further, the “Lipid/MC3 hEPO conc. ratio 2 mpk” value in the series on rats [1] (rats, intravenous, 2 mpk, 6 hours) is 1. For the same compound, the “IP-10” value with rats [2] is 688.3 pg/mL. In the series with rats [3] (rats, 48 h), the “% Lipid Remaining in liver, 48 h* 2 mpk” value was 87%. In addition, in the series on rats [3] (rats, intravenous, 48 hours), the “remained in the liver after 48 hours” value is reported as “greater than 60%”.

For the compound `CCCCCCCCCOC(=O)CCCCCCCN(CCO)CCCCCCCC(=O)OC(CCCCCCCC)CCCCCCCC` [Compound 18, Heptadecan-9-yl 8-((2-hydroxyethyl)(8-(nonyloxy)-8-oxooctyl)amino)octanoate], in the series with mice, the “Total flux (p/s) 0.01 mpk Dose” value was found to be 8.84E+07 p/s. Moreover, the hEPO expression with rats [1] (i.v., 0.2 mpk, 0.25 h) is listed as 20227 pg/mL; with rats [1] (i.v., 0.2 mpk, 0.5 h) it was 20743 pg/mL; in the series with rats [1] (i.v., 0.2 mpk, 1 h), 194353 pg/mL; in the series on rats [1] (i.v., 0.2 mpk, 2 h), 238107 pg/mL; in the series with rats [1] (i.v., 0.2 mpk, 4 h), 514807 pg/mL; in the series with rats [1] (i.v., 0.2 mpk, 8 h) it was 915320 pg/mL. Also, the hEPO expression with rats [1] (i.v., 0.2 mpk, 24 h) was 412051 pg/mL; in the series on rats [1] (i.v., 0.2 mpk, 48 h), 52361 pg/mL. For the same compound, the “IP-10” value in the series on rats [2] was found to be 517.3 pg/mL. Besides, the “Lipid level in liver” value in the series on rats [3] (0.25 h) is given as 5374 ng/g; in the series with rats [3] (0.5 h), 6023 ng/g; with rats [3] (1 h) it was 6053 ng/g; in the series on rats [3] (2 h), 2037 ng/g; in the series with rats [3] (4 h), 839 ng/g; in the series with rats [3] (8 h), 296 ng/g. The “Lipid level in liver” value was 5 ng/g in the series with rats [3] (24 h) and 5374 ng/g with rats [3] (48 h). Also, the “Lipid level in spleen” value in the series on rats [3] (0.25 h) worked out at 1230 ng/g; with rats [3] (0.5 h), 2017 ng/g; with rats [3] (1 h) it was 3213 ng/g; in the series with rats [3] (2 h), 3070 ng/g; in the series on rats [3] (4 h), 3770 ng/g; with rats [3] (8 h), 1345 ng/g. In addition, the “Lipid level in spleen” value in the series with rats [3] (24 h) amounted to 271 ng/g; in the series on rats [3] (48 h), 92 ng/g. Moreover, in the series with rats [3] (rats, 48 h), the “% Lipid Remaining in liver, 48 h* 2 mpk” value is 0.018%.

On to `CCCCCCCCCCCOC(=O)CCCCCN(CCO)CCCCCCCC(=O)OC(CCCCCCCC)CCCCCCCC` [Compound 25, Heptadecan-9-yl 8-((2-hydroxyethyl)(6-oxo-6-(undecyloxy)hexyl)amino)octanoate], for which the “Total flux (p/s) 0.001 mpk Dose” value in the series on mice was determined as 3.53E+06 p/s. Further, in the series with mice, the “Total flux (p/s) 0.01 mpk Dose” value amounted to 9.96E+07 p/s. In addition, the hEPO expression is recorded as 0 pg/mL in the series on rats [1] (i.v., 0.2 mpk, 0.25 h); 19553 pg/mL in the series on rats [1] (i.v., 0.2 mpk, 0.5 h); 434299 pg/mL with rats [1] (i.v., 0.2 mpk, 1 h); 2042807 pg/mL with rats [1] (i.v., 0.2 mpk, 2 h); 3176560 pg/mL with rats [1] (i.v., 0.2 mpk, 4 h); 2631633 pg/mL with rats [1] (i.v., 0.2 mpk, 8 h). In addition, the hEPO expression was determined as 869374 pg/mL in the series with rats [1] (i.v., 0.2 mpk, 24 h) and 103089 pg/mL in the series with rats [1] (i.v., 0.2 mpk, 48 h). Also, the “IP-10” value in the series on rats [2] is recorded as 533.5 pg/mL. Also, the “% Lipid Remaining in liver, 48 h* 2 mpk” value with rats [3] (rats, 48 h) came to 1.32%.
